Four compounds from article PMC3393087 (Journal of the American Chemical Society, 2010) can be followed below.

For orientation: Km means the substrate concentration at which the rate is half of its maximum.

Converted amounts (≈) assume the structure as drawn. Read-outs that look alike come from different tables or passages of the source. Where only a bound is given, the exact number is not on record here.

Test [1] concerns A. baumannii strain JC7/04 pAT-RA/OXA-24 (Y112A,M223A). Kind of test: microbe, parasite or virus in culture. Format: cell-based. As to conditions: Acinetobacter baumannii.
Test [2] deals with A. baumannii strain JC7/04 pAT-RA. Kind of test: microbe, parasite or virus in culture. Format: cell-based, Acinetobacter baumannii.
Test [3] relates to A. baumannii strain JC7/04 pAT-RA/OXA-24 (WT). Kind of test: microbe, parasite or virus in culture. Format: cell-based, Acinetobacter baumannii.
A further test addresses OXA-24 Tyr112Ala (Acinetobacter baumannii, UniProt Q8RLA6, Y112A). The conditions noted are these: substrate hydrolysis by OXA-24 Tyr112Ala.
The target of test [4] is OXA-24 Tyr112Ala Met 223Ala (Acinetobacter baumannii, UniProt Q8RLA6, M223A/Y112A). As to conditions: substrate hydrolysis by OXA-24 Tyr112Ala Met223Ala.
Setting [5] is: pAT-RA without blaOXA-24, tazobactam, 1-5 tested at 16 μg/ml, 50 μg/mL rifampin.
Setting [6] is: pAT-RA/OXA-24 (WT), tazobactam, 1-5 tested at 4 μg/ml, 50 μg/mL rifampin.
The mark [7] stands for this setting: pAT-RA/OXA-24 (WT), tazobactam, 1-5 tested at 16 μg/ml, 50 μg/mL rifampin.

With `C[C@@H](O)[C@H]1C(=O)N2C(C(=O)O)=C(SCCN=CN)C[C@H]12` [Imipenem, imipenem], the MIC in test [1] is 4 µg/mL (≈ 13.4 µM); in test [2] (setting [5]) it was 1 µg/mL; in test [3] (Acinetobacter baumannii), 32 µg/mL (≈ 107 µM); in test [3] (setting [6]), 32 µg/mL; in test [3] (setting [7]), 32 µg/mL.

Consider `C[C@@H](O)[C@H]1C(=O)N2C(C(=O)O)=C(S[C@@H]3CN[C@H](C(=O)N(C)C)C3)[C@H](C)[C@H]12` [Meropenem, meropenem], for which the MIC in test [1] stood at 2 µg/mL (≈ 5.22 µM); in test [2] (pAT-RA without blaOXA-24, tazobactam, 1-5 tested at 4 μg/ml, 50 μg/mL rifampin), 1 µg/mL; in test [2] (setting [5]), 1 µg/mL; in test [3] (Acinetobacter baumannii) it was 32 µg/mL (≈ 83.4 µM); in test [3] (setting [6]) it was 32 µg/mL; in test [3] (setting [7]), 32 µg/mL.

For `O=C(Cc1cccs1)N[C@@H]1C(=O)N2C(C(=O)O)=C(/C=C/c3ccc([N+](=O)[O-])cc3[N+](=O)[O-])CS[C@H]12` [NCF, nitrocefin], the values for the Michaelis constant (Km) (on OXA-24 Tyr112Ala; in test [4]) were 238 µM and 143 µM, respectively.

As to `C[C@]1(Cn2ccnn2)[C@H](C(=O)O)N2C(=O)C[C@H]2S1(=O)=O` [tazobactam], in test [2] (Acinetobacter baumannii, JC7/04PATRA, read-out: MIC of inhibitor alone), the MIC was more than 64 µg/mL. In addition, the “reduction in MICs of meropenem or imipenem” value in test [3] (inhibitor at 4 μg/ml combined with meropenem or imipenem, blaOXA-24 expressed) is “did not detect a reduction in MICs”.
